From patent US20030170245A1, “Activation of matriptase and diagnostic and therapeutic methods based thereon” (priority 2002, published 2003)

How the values were obtained:
[1] = system: matriptase; assay: Induction of matriptase activation in A1N4 mammary epithelial cells (immunoblot of two-chain form with mAb M69); assay type: cell-based, human; conditions: for induction of matriptase activation (two-chain form): A1N4 cells, qualitative; for concentration at which maximal activation of matriptase was achieved: intact A1N4 cells
Protocol: FIG. 22 LPA and S1P induce the activation of matriptase.
(§1) Immunoblotting analysis: Immunobloting was conducted as previously described. Proteins were separated by 10% SDS-PAGE, transferred overnight to nitrocellulose sheets (Schleicher & Schuell, Keene, N.H.) or polyvinylidene fluoride (PVDF) and subsequently probed with mAb, as indicated. Immuno-reactive polypeptides were visualized using peroxidase-labeled anti-rat immunoglobulin and the ECL detection system (NEN, Boston, Mass.).
Induction of matriptase activation in A1N4 mammary epithelial cells: To serum starve 184 A1N4 cells, the cells were plated at 50-60% confluence, and maintained for 48-72 hrs in medium containing 0.5% serum. The activation of matriptase was then induced by incubating the cells with Iscove's Modified Dulbecco's Medium (IMEM), containing serum, as indicated in the Figure legend. Cells were then scrapped in PBS, and pelleted by centrifigation with a 5 min spin (1500×g). The cell pellets were lysed on ice for 20 min in lysis buffer (1% TritonX-100 in phosphate buffered saline). Cellular debris were removed by centrifugation for 10 min at 14,000×g. Equal protein amounts, as determined by the BCA protein micro assay (Pierce), were resolved under non-reducing, non-boiled conditions, by sodium dodecyl sulfate-polyacrylamide gel electrophoresis (SDS-PAGE), and electroblotted onto PVDF membranes (Millipore).

[2] = system: mRNA levels for matriptase or HAI-1; assay: mRNA levels in estrogen-depleted MCF-7 cells after hormone treatment; assay type: cell-based, human; conditions: data not shown
Protocol: Northern blotting—Total RNA was extracted from cell lines with RNAzol reagent (Tel-Test, Inc., Friendswood, Tex.) according to the manufacturer's instructions. Ten micrograms of total RNA from each cell line was resolved by electrophoresis on a 1.2% phosphate-buffered agarose gel containing 2M formaldehyde. RNA was subsequently transferred to hybond-N nylon membranes (Amersham Pharmacia Biotech, Buckinghamshire, England) and hybridized to ^32P-labeled riboprobes at 65° C. for 36 hours, followed by three washes in 0.1×SSC/0.1%SDS at 80° C. for 30 minutes each to remove unbound probe. To generate the labeled riboprobes, the coding sequences of Matriptase and HAI-1 were cloned into the pcDNA3.1 vector (Invitrogen, San Diego, Calif.), and were linearized with an appropriate restriction enzyme just 5′ of the coding sequences. These linearized vectors were used in in vitro SP6 RNA polymerase reactions with ^32P-UTP (3000 Ci/mmol, NEN, Boston, Mass.) to generate labeled antisense riboprobes. To control for approximately equal loading of RNA from each cell line, labeled riboprobes directed against the message of the ribosomal protein 36B4 were generated in a similar fashion, except that a vector containing approximately 500 bp of the coding sequence was used. […]

[3] = system: A1N4 human mammary epithelial cells; assay: Immunofluorescence of actin cytoskeleton rearrangement in A1N4 cells; assay type: cell-based
Protocol: FIG. 23 Immunofluorescence of actin rearrangement and activated matriptase following LPA and SIP stimulation.
Immunofluorescence: Cells were fixed with 2% paraformaldehyde for 10 min. The two-chain form matriptase was detected with mAb M69 and total matriptase was detected with mAb M32 for 1 hr at room temperature. This was followed by an 1 hr incubation with 1:200 dilution of FITC-conjugated goat anti-mouse (Jackson Immunoresearch, PA). Cells were viewed on a Zeiss microscope, and photographed with Kodak film.

[4] = target: T1, matriptase (Homo sapiens, UniProt Q9Y5Y6); assay: Proteolytic activity assay (cleavage rate of fluorescent substrate BOC-Gln-Ala-Arg-AMC); assay type: biochemical; conditions: pH 8.0, 37° C.
T1 construct: separated into two groups of polypeptides with apparent sizes of 45-kDa (A chain) and 25-kDa (B chain); from tissue; host or cells: human milk
T1 sequence (Q9Y5Y6 190-614 limits assumed): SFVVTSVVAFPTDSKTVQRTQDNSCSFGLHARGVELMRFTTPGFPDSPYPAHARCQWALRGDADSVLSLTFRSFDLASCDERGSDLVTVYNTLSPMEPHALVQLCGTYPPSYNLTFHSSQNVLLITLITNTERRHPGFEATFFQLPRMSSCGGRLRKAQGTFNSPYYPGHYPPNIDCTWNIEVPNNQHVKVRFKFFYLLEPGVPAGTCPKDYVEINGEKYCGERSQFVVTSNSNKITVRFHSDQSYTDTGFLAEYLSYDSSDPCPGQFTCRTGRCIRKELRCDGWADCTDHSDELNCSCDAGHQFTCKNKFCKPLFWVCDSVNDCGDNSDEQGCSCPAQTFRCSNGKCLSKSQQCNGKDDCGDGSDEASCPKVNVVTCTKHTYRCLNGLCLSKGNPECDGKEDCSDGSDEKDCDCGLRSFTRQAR
T1 sequence (Q9Y5Y6 615-854 limits assumed): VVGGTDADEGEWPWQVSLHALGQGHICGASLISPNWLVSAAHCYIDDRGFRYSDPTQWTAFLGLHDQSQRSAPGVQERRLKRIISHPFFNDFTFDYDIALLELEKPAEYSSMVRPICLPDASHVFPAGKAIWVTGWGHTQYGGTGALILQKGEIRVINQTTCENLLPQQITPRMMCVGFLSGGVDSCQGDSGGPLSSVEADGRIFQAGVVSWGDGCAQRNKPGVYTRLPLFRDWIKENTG
Protocol: (§2) FIG. 11 Inhibition of matriptase by HAI-1. Matriptase and HAI-1 were isolated from human milk by anti-matriptase mAb 21-9 immunoaffinity chromatography, as described previously, and were maintained in an uncomplexed status in elution buffer, 0.1 M glycine, pH 2.4.
[…] Louis), as a substrate. The rate of cleavage was determined with a fluorescence spectrophotometer (Hitachi, F-4500).

[5] = target: T1, matriptase; assay: Gelatin zymography of matriptase and matriptase/HAI-1 complex; assay type: biochemical; conditions: 1 mg/ml gelatin zymogram
Source text: as §2

[6] = target: T1, matriptase; assay: Binding of HAI-1 to matriptase (95-kDa complex formation, immunoblot with mAb 21-9)
Protocol: as §2, §1

## C=C1[C@@H](C)[C@H]2[C@H](Cc3ccccc3)NC(=O)[C@]23[C@H](OC(C)=O)/C=C/[C@@](C)(O)C(=O)[C@@H](C)C/C=C/[C@H]3[C@@H]1O [cytochalasin D]
[1]; pretreatment of cells before S1P
  block of S1P-induced activation of matriptase: failed to block the activation of matriptase by S1P

## Ceramide1-P
[1]
  induction of matriptase activation (two-chain form): induced the activation of matriptase although at higher concentration than S1P

## C[C@]12CC[C@@H]3c4ccc(O)cc4CC[C@H]3[C@@H]1CC[C@@H]2O [17β-estradiol]
[2]; 100 nM 17β-estradiol
  change in mRNA levels for matriptase or HAI-1: no change

## CC(=O)[C@H]1CC[C@H]2[C@@H]3CCC4=CC(=O)CC[C@]4(C)[C@H]3CC[C@]12C [progesterone]
[2]; 100 nM 17β-estradiol plus 100 nM progesterone
  change in mRNA levels for matriptase or HAI-1: no change

## lysophosphatidic acid [LPA]
[3]
  actin cytoskeleton rearrangement (stress-fiber formation): induced actin cytoskelaton reorganization
[1]
  induction of matriptase activation (two-chain form): could mimic serum and LDL induced activation of matriptase
  concentration at which maximal activation of matriptase was achieved: 1 µg/mL

## CCCCCCCCCCCCC/C=C/[C@@H](O)[C@@H](N)COP(=O)(O)O [S1P, shingosine 1-phosphate]
[3]
  actin cytoskeleton rearrangement (stress-fiber formation): induced actin cytoskelaton reorganization
[1]
  induction of matriptase activation (two-chain form): could mimic serum and LDL induced activation of matriptase
  concentration at which maximal activation of matriptase was achieved: 0.001 µg/mL
[1]; S1P versus LPA
  potency in inducing the activation of matriptase relative to LPA: 100 fold
[1]; after S1P addition
  time at which activation of matriptase started after addition: ≤ 5 min
  time to maximal activation of matriptase: ≤ 10 min
[1]; molar value in brackets
  concentration at which maximal activation of matriptase was achieved: 2.6 nM

B1: HAI-1: type-1, integral membrane, Kunitz-type serine protease inhibitor, cognate inhibitor of matriptase (protein, UniProt O43278 36-529, looked up)
Kunitz-type protease …: GPPPAPPGLPAGADCLNSFTAGVPGFVLDTNASVSNGATFLESPTVRRGWDCVRACCTTQNCNLALVELQPDRGEDAIAACFLINCLYEQNFVCKFAPREGFINYLTREVYRSYRQLRTQGFGGSGIPKAWAGIDLKVQPQEPLVLKDVENTDWRLLRGDTDVRVERKDPNQVELWGLKEGTYLFQLTVTSSDHPEDTANVTVTVLSTKQTEDYCLASNKVGRCRGSFPRWYYDPTEQICKSFVYGGCLGNKNNYLREEECILACRGVQGGPLRGSSGAQATFPQGPSMERRHPVCSGTCQPTQFRCSNGCCIDSFLECDDTPNCPDASDEAACEKYTSGFDELQRIHFPSDKGHCVDLPDTGLCKESIPRWYYNPFSEHCARFTYGGCYGNKNNFEEEQQCLESCRGISKKDVFGLRREIPIPSTGSVEMAVAVFLVICIVVVVAILGYCFFKNQRKDFHGHHHHPPPTPASSTVSTTEDTEHLVYNHTTRPL
[4]
  rate of cleavage of synthetic fluorescent substrate by matriptase after HAI-1 binding: drastically decreased
[5]
  gelatinolytic activity of the 95-kDa matriptase/HAI-1 complex: only trace amounts of gelatinolytic activity
[6]; pH 8.0, 37° C.
  incubation time after which uncomplexed matriptase was undetectable by immunoblot: 30 min
[6]; pH raised to 8.0, 37° C.
  formation of 95-kDa matriptase/HAI-1 complex: rapidly occurred
